Measurements: ChEMBL document CHEMBL4007496, “Isolation and characterization of diterpene glycosides from Siegesbeckia pubescens” (Bioorg Med Chem Lett, 2017)
pIC50: −log10 of the molar value.

The compounds below were run on RAW264.7 (assay: Antiinflammatory activity in mouse RAW264.7 cells assessed as inhibition of LPS-induced nitric oxide production preincubated for 30 mins followed by LPS challenge measured after 24 hrs by Griess assay).
Format: functional, cell-based

SMILES | pIC50
CC1(C)[C@H]2CCC3=C[C@@](C)([C@@H](O)CO)CC[C@H]3[C@]2(C)CC[C@H]1O[C@@H]1O[C@H](CO)[C@@H](O)[C@H](O)[C@H]1O | < 4.00
CC1(C)[C@H]2CCC3=C[C@@](C)(C=O)CC[C@H]3[C@]2(C)CC[C@H]1O[C@@H]1O[C@H](CO)[C@@H](O)[C@H](O)[C@H]1O | < 4.00
CC1(C)[C@H]2CCC3=C[C@@](C)([C@H](O)CO)CC[C@H]3[C@]2(C)CC[C@H]1O[C@@H]1O[C@H](CO)[C@@H](O)[C@H](O)[C@H]1O | < 4.00
C=C1C[C@]23CC[C@@H]4[C@](C)(CO[C@@H]5O[C@H](CO)[C@@H](O)[C@H](O)[C@H]5O)CC(=O)C[C@@]4(C)[C@@H]2CC[C@@]1(O)C3 | < 4.00
CC1(C)[C@@H](O[C@@H]2O[C@H](CO)[C@@H](O)[C@H](O)[C@H]2O)CC[C@@]2(C)[C@@H]3CC[C@](C)([C@@H](O)CO)C=C3CC[C@H]12 | < 4.00
CC1(C)[C@H]2CCC3=C(CC[C@](C)([C@@H](O)CO)C3)[C@]2(C)CC[C@H]1O[C@@H]1O[C@H](CO)[C@@H](O)[C@H](O)[C@H]1O | < 4.00

The compounds below were run on MDA-MB-231 (assay: Inhibition of EGF-induced invasion of human MDA-MB-231 cells by MTT assay).
Format: functional, cell-based

SMILES | pIC50
CC1(C)[C@H]2CCC3=C[C@@](C)([C@@H](O)CO)CC[C@H]3[C@]2(C)CC[C@H]1O[C@@H]1O[C@H](CO)[C@@H](O)[C@H](O)[C@H]1O | < 4.60
CC1(C)[C@H]2CCC3=C[C@@](C)(C=O)CC[C@H]3[C@]2(C)CC[C@H]1O[C@@H]1O[C@H](CO)[C@@H](O)[C@H](O)[C@H]1O | < 4.60
CC1(C)[C@H]2CCC3=C[C@@](C)([C@H](O)CO)CC[C@H]3[C@]2(C)CC[C@H]1O[C@@H]1O[C@H](CO)[C@@H](O)[C@H](O)[C@H]1O | 6.57
CC1(C)[C@H](O)CC[C@@]2(C)[C@@H]3CC[C@](C)([C@@H](O)CO)C=C3CC[C@H]12 [DARUTIGENOL] | < 4.60
C=C1C[C@]23CC[C@@H]4[C@](C)(CO[C@@H]5O[C@H](CO)[C@@H](O)[C@H](O)[C@H]5O)CC(=O)C[C@@]4(C)[C@@H]2CC[C@@]1(O)C3 | 4.57
CC1(C)[C@@H](O[C@@H]2O[C@H](CO)[C@@H](O)[C@H](O)[C@H]2O)CC[C@@]2(C)[C@@H]3CC[C@](C)([C@@H](O)CO)C=C3CC[C@H]12 | 4.61
CC1(C)[C@H]2CCC3=C(CC[C@](C)([C@@H](O)CO)C3)[C@]2(C)CC[C@H]1O[C@@H]1O[C@H](CO)[C@@H](O)[C@H](O)[C@H]1O | < 4.60
